According to patent US10047036B2, “Method for the synthesis of hydroxy-triglycerides and uses thereof for the prevention and treatment of diseases” (UNIVERSITAT DE LES ILLES BALEARS, priority 2014, dated 2018):

How the values were obtained:
plasma glucose = plasma glucose in spontaneously hypertensive rats; assay type: in vivo; details: SHR rats, 9 days, 400 mg/kg every 12 hours, p.o.; fasting 12 hours
Text: Metabolic and cardiovascular pathologies are closely related. The overfeeding which characterises our society not only gives rise to problems of obesity and excess weight. It is also linked to the appearance of diabetes, dyslipidaemia, hypertension, strokes, arteriosclerosis, ictus, etc. All of these pathologies increase the risk of premature death and can even cause death. In this sense, certain natural oils show a certain efficacy against this type of pathologies, but their power is limited. In contrast, the molecules of the invention have an important effect against the development of this type of pathologies. To be able to study the effects of the compounds of the invention for the prevention and treatment of metabolic and cardiovascular pathologies, hypertensive rats were used (SHR strain, spontaneously hypertensive rats). These rats present obesity, high blood pressure, dyslipidaemia (hypercholesterolemia and hypertriglyceridemia), diabetes, metabolic syndrome and other related health problems. At the same time, research was conducted into the efficacy of the hydroxy-triglycerides for controlling the high levels of glycaemia in SHR rats, and therefore, preventing or curing diabetes. Hypertensive rats (SHR) with an approximate weight of 300 grams were treated with TGM1 during 9 days (400 mg/kg, every 12 h, p.o.). Plasma glucose was measured before starting the treatment (basal) and 9 days later. In all cases, the plasma measurements were conducted in rats kept fasting during 12 hours. In this way, after 9 days of treatment, the levels of glucose in blood were reduced by up to more than 25% for the molecules of the invention (FIG. 5 and Table 4). [table]

[1] = molecular target: T1, Glycogen Branching Enzyme 1 (GBE1) wild type (Homo sapiens, UniProt Q04446); assay: activity of purified enzyme GBE1 in the presence of PC membranes; assay type: biochemical; details: PC membranes with TGM 20 mol %; non-mutated enzyme = 100% (0.76 nmol/min · ng protein)
T1 sequence (Q04446 1-702): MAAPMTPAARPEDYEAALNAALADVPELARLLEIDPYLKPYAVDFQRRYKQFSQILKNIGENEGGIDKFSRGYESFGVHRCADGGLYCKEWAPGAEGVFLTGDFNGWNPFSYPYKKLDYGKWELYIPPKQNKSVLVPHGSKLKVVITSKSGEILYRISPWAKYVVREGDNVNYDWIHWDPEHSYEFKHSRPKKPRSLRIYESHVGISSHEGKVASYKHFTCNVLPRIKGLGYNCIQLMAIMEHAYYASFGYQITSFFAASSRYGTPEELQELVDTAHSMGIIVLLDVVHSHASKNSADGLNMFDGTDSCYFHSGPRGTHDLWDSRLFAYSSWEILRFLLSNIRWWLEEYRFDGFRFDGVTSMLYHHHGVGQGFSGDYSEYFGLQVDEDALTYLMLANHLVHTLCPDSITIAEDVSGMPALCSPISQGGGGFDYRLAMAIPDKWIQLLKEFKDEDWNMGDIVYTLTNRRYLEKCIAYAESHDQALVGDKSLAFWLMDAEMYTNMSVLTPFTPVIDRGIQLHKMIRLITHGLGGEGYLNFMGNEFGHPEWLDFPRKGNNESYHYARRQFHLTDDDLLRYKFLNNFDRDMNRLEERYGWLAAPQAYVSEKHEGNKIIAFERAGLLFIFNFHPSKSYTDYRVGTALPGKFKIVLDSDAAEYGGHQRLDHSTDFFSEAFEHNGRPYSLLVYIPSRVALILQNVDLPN
Text: It has been possible to observe that the molecules of the present invention are capable of regulating the activity of the Glycogen Branching Enzyme 1 (GBE1) and its joining to membranes (Table 9). Alterations in this enzyme give rise to a neurodegenerative process known as APBD (Kakhlon et al., 2013). It has been described that a modification of tyrosine in position 329 of this enzyme (Y329S) causes a reduction in the activity of GBE1. This gives rise to a lower branching of glycogen, which precipitates forming […] which interfere with cell activity (Kakhlon et al., 2013). This gives rise to problems in the function of certain organs, to motor problems and, in some cases, to cognitive decline. We have been able to verify that the hydroxy-triglycerides of the present invention are capable of regulating the joining of native GBE1 (wild type, wt) and with the variant Y329S to membranes and to increase the activity of the form Y329S, which is very low in normal conditions (Table 9). For this reason, the molecules of the present invention are effective for the prevention and treatment of the polyglucosan bodies disease, APBD.

body weight of SHR rats = assay type: in vivo; details: 14 days, 600 mg/kg, 12 h, p.o., basal weight 342 grams
Text: Metabolic and cardiovascular pathologies are closely related. The overfeeding which characterises our society not only gives rise to problems of obesity and excess weight. It is also linked to the appearance of diabetes, dyslipidaemia, hypertension, strokes, arteriosclerosis, ictus, etc. All of these pathologies increase the risk of premature death and can even cause death. In this sense, certain natural oils show a certain efficacy against this type of pathologies, but their power is limited. In contrast, the molecules of the invention have an important effect against the development of this type of pathologies. To be able to study the effects of the compounds of the invention for the prevention and treatment of metabolic and cardiovascular pathologies, hypertensive rats were used (SHR strain, spontaneously hypertensive rats). These rats present obesity, high blood pressure, dyslipidaemia (hypercholesterolemia and hypertriglyceridemia), diabetes, metabolic syndrome and other related health problems.

[2] = membrane transition temperatures by X-ray diffraction; assay type: physicochemical; details: POPE with 1 mol % of TGM
Text: As can be appreciated, the presence of TGM induce a very important reduction in the lateral surface tension which is evident from the reduction in the value of the lamellar-to-hexagonal (L-a-HII) transition temperature, which in turn indicates an increase in non-lamellar propensity: Table 12). This effect has an important repercussion on the functionality of the membrane, as this structure allows for the anchoring of certain membrane proteins necessary for cell signalling. For this reason, it can be said that the TGMs have a positive effect on cell signalling because they allow the propagation of cell signals which are lost in association with a wide variety of diseases. This effect shown on the structure of the membrane explains in part why certain oils, such as olive oil or fish oil, have important beneficial properties for the prevention of various diseases, such as cancer, cardiovascular/metabolic diseases and neurological/neurodegenerative diseases. FIG. 6 and Table 12 show clearly how all the TGMs have a similar effect, although with minor nuances in each case. The effect on the solid-liquid transition (Tm) and the lamellar to hexagonal transition (TH) was measured in membranes of palmitoyl-oleoyl phosphatidylethanolamine (POPE) by means of X-ray diffraction in the absence of (POPE Control) or presence of 1 mol % of each one of the indicated TGMs.

## CCC=CCC=CCC=CCC=CCC=CCCC(O)C(=O)OCC(COC(=O)C(O)CCC=CCC=CCC=CCC=CCC=CCC)OC(=O)C(O)CCC=CCC=CCC=CCC=CCC=CCC (centres unmarked) [TGM5, 1,2,3-tri(2′-hydroxy-eicosa-5′,8′,11′,14′,17′-pentaenoyl)glycerol]
Plasma glucose
  Δ G, change in glucose levels in plasma: -13 mg/dL
[1]
  Activity GBE1wt: 24 ± 2%
Body weight of SHR rats
  ΔWeight, change in weight: -9 ± 3 g

## CCCCCC=CCC=CCCCCCCC(O)C(=O)OCC(COC(=O)C(O)CCCCCCC=CCC=CCCCCC)OC(=O)C(O)CCCCCCC=CCC=CCCCCC (centres unmarked) [TGM2, 1,2,3-tri(2′-hydroxy-octadec-9′,12′-dienoyl)glycerol]
Plasma glucose
  Δ G, change in glucose levels in plasma: -7 mg/dL
[2]
  TH, lamellar to hexagonal transition temperature: 62.0 ± 1.1 °C
  Tm, solid-liquid transition temperature: 23.6 ± 0.3 °C
[1]
  Activity GBE1wt: 72 ± 5%
Body weight of SHR rats
  ΔWeight, change in weight: -32 ± 6 g

## CCC=CCC=CCC=CCC=CCC=CCC=CCC(O)C(=O)OCC(COC(=O)C(O)CC=CCC=CCC=CCC=CCC=CCC=CCC)OC(=O)C(O)CC=CCC=CCC=CCC=CCC=CCC=CCC (centres unmarked) [TGM6, 1,2,3-tri(2′-hydroxy-docosa-4′,7′,10′,13′,16′,19′-hexanoyl)glycerol]
Plasma glucose
  Δ G, change in glucose levels in plasma: -16 mg/dL
[2]
  TH, lamellar to hexagonal transition temperature: 64.9 ± 0.9 °C
  Tm, solid-liquid transition temperature: 23.3 ± 0.2 °C
[1]
  Activity GBE1wt: 33 ± 3%
Body weight of SHR rats
  ΔWeight, change in weight: -19 ± 4 g

## CCC=CCC=CCC=CCCCCCCC(O)C(=O)OCC(COC(=O)C(O)CCCCCCC=CCC=CCC=CCC)OC(=O)C(O)CCCCCCC=CCC=CCC=CCC (centres unmarked) [TGM3A, 1,2,3-tri(2′-hydroxy-octadec-9′,12′,15′-trienoyl)glycerol]
Plasma glucose
  Δ G, change in glucose levels in plasma: -14 mg/dL
[2]
  TH, lamellar to hexagonal transition temperature: 63.0 ± 1.1 °C
  Tm, solid-liquid transition temperature: 23.4 ± 0.2 °C
[1]
  Activity GBE1wt: 88 ± 2%
Body weight of SHR rats
  ΔWeight, change in weight: -14 ± 4 g

## CCCCCCCCC=CCCCCCCC(O)C(=O)OCC(COC(=O)C(O)CCCCCCC=CCCCCCCCC)OC(=O)C(O)CCCCCCC=CCCCCCCCC (centres unmarked) [TGM1, 1,2,3-tri(2′-hydroxy-octadec-9′-enoyl)glycerol]
Plasma glucose
  Δ G, change in glucose levels in plasma: -20 mg/dL
[2]
  TH, lamellar to hexagonal transition temperature: 66.0 ± 0.9 °C
  Tm, solid-liquid transition temperature: 23.8 ± 0.3 °C
[1]
  Activity GBE1wt: 89 ± 10%
Body weight of SHR rats
  ΔWeight, change in weight: -22 ± 5 g

## CCCCCC=CCC=CCC=CCC=CCCC(O)C(=O)OCC(COC(=O)C(O)CCC=CCC=CCC=CCC=CCCCCC)OC(=O)C(O)CCC=CCC=CCC=CCC=CCCCCC (centres unmarked) [TGM4, 1,2,3-tri(2′-hydroxy-eicosa-5′,8′,11′,14′-tetraenoyl)glycerol]
Plasma glucose
  Δ G, change in glucose levels in plasma: -5 mg/dL
[2]
  TH, lamellar to hexagonal transition temperature: 64.6 ± 0.8 °C
  Tm, solid-liquid transition temperature: 23.2 ± 0.2 °C
[1]
  Activity GBE1wt: 31 ± 4%
Body weight of SHR rats
  ΔWeight, change in weight: -25 ± 5 g

## CCCCCC(O)C(=O)OCC(COC(=O)C(O)CCCCC)OC(=O)C(O)CCCCC (centres unmarked) [TGM0, 1,2,3-tri(2′-hydroxyheptanoyl)glycerol]
Plasma glucose
  Δ G, change in glucose levels in plasma: -4 mg/dL
[2]
  TH, lamellar to hexagonal transition temperature: 68.3 ± 0.6 °C
  Tm, solid-liquid transition temperature: 22.7 ± 0.2 °C
[1]
  Activity GBE1wt: 95 ± 12%
Body weight of SHR rats
  ΔWeight, change in weight: -4 ± 2 g

## CCCCCC=CCC=CCC=CCCCC(O)C(=O)OCC(COC(=O)C(O)CCCC=CCC=CCC=CCCCCC)OC(=O)C(O)CCCC=CCC=CCC=CCCCCC (centres unmarked) [TGM3G, 1,2,3-tri(2′-hydroxy-octadec-6′,9′,12′-trienoyl)glycerol]
Plasma glucose
  Δ G, change in glucose levels in plasma: -9 mg/dL
[2]
  TH, lamellar to hexagonal transition temperature: 63.6 ± 1.1 °C
  Tm, solid-liquid transition temperature: 23.3 ± 0.3 °C
[1]
  Activity GBE1wt: 69 ± 7%
Body weight of SHR rats
  ΔWeight, change in weight: -12 ± 3 g
